From patent US10294234B2, “HIV inhibitor compounds” (priority 2017, dated 2019)

These compounds were tested on HIV-1 (IIIB) in MT-4 cells (assay: MT-4 HIV assay). Conditions: Human immunodeficiency virus 1, MT4, 120 h.
Assay type: cell-based
Description: Compounds were tested in a high-throughput 384-well assay format for their ability to inhibit the replication of HIV-1 (IIIB) in MT-4 cells. Compounds were serially diluted (1:3) in DMSO on 384-well polypropylene plates and further diluted 200-fold into complete RPMI media (10% FBS, 1% P/S) using the Biotek Micro Flow and Agilent ECHO acoustic dispenser. Each plate contained up to 8 test compounds, with negative (No Drug Control) and 5 uM AZT positive controls. MT-4 cells were pre-infected with 10 uL of either RPMI (mock-infected) or a fresh 1:250 dilution of an HIV-1 (IIIB) concentrated virus stock. Infected and uninfected MT-4 cells were further diluted in complete RPMI media and added to each plate using a Micro Flow dispenser. After 5 days incubation in a humidified and temperature controlled incubator (37° C.), Cell Titer Glo (Promega) was added to the assay plates to quantify the amount of luciferase.
In the case of `COC(=O)N[C@H](C(=O)N[C@@H](Cc1ccc(C#Cc2ccc(N3CC4(C)CN(C5COC5)CC(C)(C3)C4=O)nc2)cc1)[C@@H](O)CN(Cc1c(F)cc(-c2cnn(C(F)F)c2)cc1F)NC(=O)[C@@H](NC(=O)OC)C(C)(C)C(F)(F)F)C(C)(C)C(F)(F)F` [Example 62, Methyl ((5S,8S,9S,14S)-11-(4-(1-(difluoromethyl)-1H-pyrazol-4-yl)-2,6-difluorobenzyl)-8-(4-((6-(1,5-dimethyl-7-(oxetan-3-yl)-9-oxo-3,7-diazabicyclo[3.3.1]nonan-3-yl)pyridin-3-yl)ethynyl)benzyl)-16,16,16-trifluoro-9-hydroxy-15,15-dimethyl-3,6,13-trioxo-5-(1,1,1-trifluoro-2-methylpropan-2-yl)-2-oxa-4,7,11,12-tetraazahexadecan-14-yl)carbamate], the EC50 is reported as 8.83 nM.

Same assay, conditions: Human immunodeficiency virus 1, MT4, 120 h; HIV-1 (IIIB), MT-4 cells, 5 days, Cell Titer Glo; read-out: EC50
Compound `COC(=O)N[C@H](C(=O)N[C@@H](Cc1ccc(C#Cc2ccc(N3CC4CCC(C3)N4C3COC3)nc2)cc1)[C@@H](O)CN(Cc1ccc(-c2ccn(CC(F)F)n2)cc1)NC(=O)[C@@H](NC(=O)OC)C(C)(C)C(F)(F)F)C(C)(C)C(F)(F)F` [Example 3, Methyl ((5S,10S,11S,14S)-8-(4-(1-(2,2-difluoroethyl)-1H-pyrazol-3-yl)benzyl)-16,16,16-trifluoro-10-hydroxy-15,15-dimethyl-11-(4-((6-(8-(oxetan-3-yl)-3,8-diazabicyclo[3.2.1]octan-3-yl)pyridin-3-yl)ethynyl)benzyl)-3,6,13-trioxo-5-(1,1,1-trifluoro-2-methylpropan-2-yl)-2-oxa-4,7,8,12-tetraazahexadecan-14-yl)carbamate] has an EC50 of 6.95 nM. `COC(=O)N[C@H](C(=O)N[C@@H](Cc1ccc(C#Cc2ccc(N3CC4CCC(C3)N4)nc2)cc1)[C@@H](O)CN(Cc1c(F)cc(-c2cnn(C(F)F)c2)cc1F)NC(=O)[C@@H](NC(=O)OC)C(C)(C)C(F)(F)F)C(C)(C)C(F)(F)F` [Example 162, Methyl ((5S,8S,9S,14S)-8-(4-((6-(3,8-diazabicyclo[3.2.1]octan-3-yl)pyridin-3-yl)ethynyl)benzyl)-11-(4-(1-(difluoromethyl)-1H-pyrazol-4-yl)-2,6-difluorobenzyl)-16,16,16-trifluoro-9-hydroxy-15,15-dimethyl-3,6,13-trioxo-5-(1,1,1-trifluoro-2-methylpropan-2-yl)-2-oxa-4,7,11,12-tetraazahexadecan-14-yl)carbamate] was tested, and the EC50 was 12.2 nM. Work on `COC(=O)N[C@H](C(=O)N[C@@H](Cc1ccc(C#Cc2ccc(N3CC4CCC(C3)N4C)nc2)cc1)[C@@H](O)CN(Cc1c(F)cc(-c2ccccn2)cc1F)NC(=O)[C@@H](NC(=O)OC)C(C)(C)C(F)(F)F)C(C)(C)C(F)(F)F` [Example 242, methyl ((5S,8S,9S,14S)-11-(2,6-difluoro-4-(pyridin-2-yl)benzyl)-16,16,16-trifluoro-9-hydroxy-15,15-dimethyl-8-(4-((6-(8-methyl-3,8-diazabicyclo[3.2.1]octan-3-yl)pyridin-3-yl)ethynyl)benzyl)-3,6,13-trioxo-5-(1,1,1-trifluoro-2-methylpropan-2-yl)-2-oxa-4,7,11,12-tetraazahexadecan-14-yl)carbamate] yielded an EC50 of 3.45 nM. For `COC(=O)N[C@H](C(=O)N[C@@H](Cc1ccc(C#Cc2cnc(N3CC4CC(C3)N4C3COC3)nc2)cc1)[C@@H](O)CN(Cc1c(F)cc(-c2ccn(C(F)F)n2)cc1F)NC(=O)[C@@H](NC(=O)OC)C(C)(C)C(F)(F)F)C(C)(C)C(F)(F)F` [Example 42, Methyl ((5S,8S,9S,14S)-11-(4-(1-(difluoromethyl)-1H-pyrazol-3-yl)-2,6-difluorobenzyl)-16,16,16-trifluoro-9-hydroxy-15,15-dimethyl-8-(4-((2-(6-(oxetan-3-yl)-3,6-diazabicyclo[3.1.1]heptan-3-yl)pyrimidin-5-yl)ethynyl)benzyl)-3,6,13-trioxo-5-(1,1,1-trifluoro-2-methylpropan-2-yl)-2-oxa-4,7,11,12-tetraazahexadecan-14-yl)carbamate], the EC50 was 3.18 nM. `COC(=O)N[C@H](C(=O)N[C@@H](Cc1ccc(C#Cc2ccc(N3CC4CCC(C3)N4CC3CNC3)nc2)cc1)[C@@H](O)CN(Cc1c(F)cc(-c2cnn(C(F)F)c2)cc1F)NC(=O)[C@@H](NC(=O)OC)C(C)(C)C(F)(F)F)C(C)(C)C(F)(F)F` [Example 109, Methyl ((5S,8S,9S,14S)-8-(4-((6-(8-(azetidin-3-ylmethyl)-3,8-diazabicyclo[3.2.1]octan-3-yl)pyridin-3-yl)ethynyl)benzyl)-11-(4-(1-(difluoromethyl)-1H-pyrazol-4-yl)-2,6-difluorobenzyl)-16,16,16-trifluoro-9-hydroxy-15,15-dimethyl-3,6,13-trioxo-5-(1,1,1-trifluoro-2-methylpropan-2-yl)-2-oxa-4,7,11,12-tetraazahexadecan-14-yl)carbamate] gave an EC50 of 59.7 nM. Work on `COC(=O)N[C@H](C(=O)N[C@@H](Cc1ccc(C#Cc2ccc(N3CC4CCC(C3)N4C3COC3)nc2C)cc1)[C@@H](O)CN(Cc1c(F)cc(-c2cnn(C(F)F)c2)cc1F)NC(=O)[C@@H](NC(=O)OC)C(C)(C)C(F)(F)F)C(C)(C)C(F)(F)F` [Example 155, Methyl ((5S,8S,9S,14S)-11-(4-(1-(difluoromethyl)-1H-pyrazol-4-yl)-2,6-difluorobenzyl)-16,16,16-trifluoro-9-hydroxy-15,15-dimethyl-8-(4-((2-methyl-6-(8-(oxetan-3-yl)-3,8-diazabicyclo[3.2.1]octan-3-yl)pyridin-3-yl)ethynyl)benzyl)-3,6,13-trioxo-5-(1,1,1-trifluoro-2-methylpropan-2-yl)-2-oxa-4,7,11,12-tetraazahexadecan-14-yl)carbamate] yielded an EC50 of 8.95 nM. Compound `COC(=O)N[C@H](C(=O)N[C@@H](Cc1ccc(-c2ccc(N3CC4CCC(C3)N4C3COC3)nc2)cc1)[C@@H](O)CN(Cc1c(F)cc(-c2nnc(C3CC3)o2)cc1F)NC(=O)[C@@H](NC(=O)OC)C(C)(C)C(F)(F)F)C(C)(C)C(F)(F)F` [Example 205, Methyl ((5S,8S,9S,14S)-11-(4-(5-cyclopropyl-1,3,4-oxadiazol-2-yl)-2,6-difluorobenzyl)-16,16,16-trifluoro-9-hydroxy-15,15-dimethyl-8-(4-(6-(8-(oxetan-3-yl)-3,8-diazabicyclo[3.2.1]octan-3-yl)pyridin-3-yl)benzyl)-3,6,13-trioxo-5-(1,1,1-trifluoro-2-methylpropan-2-yl)-2-oxa-4,7,11,12-tetraazahexadecan-14-yl)carbamate] has an EC50 of 5.25 nM. Work on `COC(=O)N[C@H](C(=O)N[C@@H](Cc1ccc(C#Cc2ccc(N3CC4CCC(C3)N4C3COC3)nc2)cc1)[C@@H](O)CN(Cc1ccc(-c2ccn(C3CC3)n2)cc1)NC(=O)[C@@H](NC(=O)OC)C(C)(C)C(F)(F)F)C(C)(C)C(F)(F)F` [Example 34, Methyl ((5S,8S,9S,14S)-11-(4-(1-cyclopropyl-1H-pyrazol-3-yl)benzyl)-16,16,16-trifluoro-9-hydroxy-15,15-dimethyl-8-(4-((6-(8-(oxetan-3-yl)-3,8-diazabicyclo [3.2.1]octan-3-yl)pyridin-3-yl)ethynyl)benzyl)-3,6,13-trioxo-5-(1,1,1-trifluoro-2-methylpropan-2-yl)-2-oxa-4,7,11,12-tetraazahexadecan-14-yl)carbamate] yielded an EC50 of 5.26 nM. `COC(=O)N[C@H](C(=O)N[C@@H](Cc1ccc(C#Cc2ccc(N3CCN(C4COC4)CC3)nc2)cc1)[C@@H](O)CN(Cc1c(F)cc(-c2ccn(C3CC3)n2)cc1F)NC(=O)[C@@H](NC(=O)OC)C(C)(C)C(F)(F)F)C(C)(C)C(F)(F)F` [Example 92, Methyl ((5S,8S,9S,14S)-11-(4-(1-cyclopropyl-1H-pyrazol-3-yl)-2,6-difluorobenzyl)-16,16,16-trifluoro-9-hydroxy-15,15-dimethyl-8-(4-((6-(4-(oxetan-3-yl)piperazin-1-yl)pyridin-3-yl)ethynyl)benzyl)-3,6,13-trioxo-5-(1,1,1-trifluoro-2-methylpropan-2-yl)-2-oxa-4,7,11,12-tetraazahexadecan-14-yl)carbamate] gave an EC50 of 3.72 nM. Work on `COC(=O)N[C@H](C(=O)N[C@@H](Cc1ccc(C#Cc2ccc(N3CC4CCC(C3)N4C3COC3)nc2)cc1)[C@@H](O)CN(Cc1c(F)cc(-c2ccccn2)cc1Cl)NC(=O)[C@@H](NC(=O)OC)C(C)(C)CF)C(C)(C)CF` [Example 234, methyl ((5S,8S,9S,14S)-11-(2-chloro-6-fluoro-4-(pyridin-2-yl)benzyl)-16-fluoro-5-(1-fluoro-2-methylpropan-2-yl)-9-hydroxy-15,15-dimethyl-8-(4-((6-(8-(oxetan-3-yl)-3,8-diazabicyclo[3.2.1]octan-3-yl)pyridin-3-yl)ethynyl)benzyl)-3,6,13-trioxo-2-oxa-4,7,11,12-tetraazahexadecan-14-yl)carbamate] yielded an EC50 of 2.54 nM. Compound `COC(=O)N[C@H](C(=O)NN(Cc1c(F)cc(-c2ccn(C3CC3)n2)cc1F)C[C@H](O)[C@H](Cc1ccc(C#Cc2ccc(N3CCN(C4COC4)CC3)nc2)cc1)NC(=O)[C@@H](NC(=O)OC)C(C)(C)C(F)(F)F)C(C)(C)C` [Example 91, Methyl ((5S,8S,9S,14S)-11-(4-(1-cyclopropyl-1H-pyrazol-3-yl)-2,6-difluorobenzyl)-9-hydroxy-15,15-dimethyl-8-(4-((6-(4-(oxetan-3-yl)piperazin-1-yl)pyridin-3-yl)ethynyl)benzyl)-3,6,13-trioxo-5-(1,1,1-trifluoro-2-methylpropan-2-yl)-2-oxa-4,7,11,12-tetraazahexadecan-14-yl)carbamate] has an EC50 of 3.69 nM.
